Experimental data: patent US10526316B2, “Quinoxaline and pyridopyrazine derivatives as PI3Kβ inhibitors” (Janssen Pharmaceutica NV, priority 2015, dated 2020)
Read-outs that look alike come from different tables or passages of the source.

What was measured:
kinase enzymes [1] = biological target: T1, kinase enzymes (Homo sapiens, UniProt P48736); experiment: Enzyme binding assay (KINOMEscan, DiscoveRx), further kinases of Table A; settings: PIK3Cγ_h
T1 construct: purchased DiscoveRx Corporation, San Diego (contract service, KINOMEscan)
T1 sequence (P48736 whole entry): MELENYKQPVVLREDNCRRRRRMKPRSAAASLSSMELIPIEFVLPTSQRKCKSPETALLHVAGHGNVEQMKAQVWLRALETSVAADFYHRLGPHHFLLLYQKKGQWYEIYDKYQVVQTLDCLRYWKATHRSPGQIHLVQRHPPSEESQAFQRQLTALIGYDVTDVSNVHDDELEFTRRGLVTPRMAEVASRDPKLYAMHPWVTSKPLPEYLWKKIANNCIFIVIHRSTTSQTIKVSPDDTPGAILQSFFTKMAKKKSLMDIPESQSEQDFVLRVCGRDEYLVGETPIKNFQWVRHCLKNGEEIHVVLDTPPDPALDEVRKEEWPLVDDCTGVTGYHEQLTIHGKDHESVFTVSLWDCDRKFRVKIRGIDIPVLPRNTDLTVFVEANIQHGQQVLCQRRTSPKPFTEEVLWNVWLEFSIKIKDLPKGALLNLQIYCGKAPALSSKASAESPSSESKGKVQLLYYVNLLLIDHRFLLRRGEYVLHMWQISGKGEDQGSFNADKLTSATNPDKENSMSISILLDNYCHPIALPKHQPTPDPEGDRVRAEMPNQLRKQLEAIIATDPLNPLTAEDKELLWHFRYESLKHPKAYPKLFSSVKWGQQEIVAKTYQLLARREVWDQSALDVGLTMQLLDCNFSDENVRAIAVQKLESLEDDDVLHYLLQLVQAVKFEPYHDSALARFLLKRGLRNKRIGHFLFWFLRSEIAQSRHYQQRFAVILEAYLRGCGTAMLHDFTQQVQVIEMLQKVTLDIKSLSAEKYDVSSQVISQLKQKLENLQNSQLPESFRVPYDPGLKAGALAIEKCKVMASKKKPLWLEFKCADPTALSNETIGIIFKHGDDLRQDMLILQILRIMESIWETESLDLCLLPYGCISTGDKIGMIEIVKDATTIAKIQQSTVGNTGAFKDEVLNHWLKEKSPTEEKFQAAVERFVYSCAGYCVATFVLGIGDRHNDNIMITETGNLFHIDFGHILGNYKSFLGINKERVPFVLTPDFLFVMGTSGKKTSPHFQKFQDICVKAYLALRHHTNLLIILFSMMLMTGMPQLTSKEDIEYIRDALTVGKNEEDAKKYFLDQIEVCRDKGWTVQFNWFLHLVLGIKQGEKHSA
Outline: (§1)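 Compounds were profiled by KINOMEscan to obtain kinase binding affinities.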

kinase enzymes [2] = biological target: T2, kinase enzymes (Homo sapiens, UniProt P42345); experiment: as above; settings: MTOR_h
T2 construct: purchased DiscoveRx Corporation, San Diego (contract service, KINOMEscan)
Outline: as §1

kinase enzymes [3] = biological target: T3, kinase enzymes (Homo sapiens, UniProt P42336); experiment: as above; settings: PIK3Cα_h
T3 construct: purchased DiscoveRx Corporation, San Diego (contract service, KINOMEscan)
T3 sequence (P42336 whole entry): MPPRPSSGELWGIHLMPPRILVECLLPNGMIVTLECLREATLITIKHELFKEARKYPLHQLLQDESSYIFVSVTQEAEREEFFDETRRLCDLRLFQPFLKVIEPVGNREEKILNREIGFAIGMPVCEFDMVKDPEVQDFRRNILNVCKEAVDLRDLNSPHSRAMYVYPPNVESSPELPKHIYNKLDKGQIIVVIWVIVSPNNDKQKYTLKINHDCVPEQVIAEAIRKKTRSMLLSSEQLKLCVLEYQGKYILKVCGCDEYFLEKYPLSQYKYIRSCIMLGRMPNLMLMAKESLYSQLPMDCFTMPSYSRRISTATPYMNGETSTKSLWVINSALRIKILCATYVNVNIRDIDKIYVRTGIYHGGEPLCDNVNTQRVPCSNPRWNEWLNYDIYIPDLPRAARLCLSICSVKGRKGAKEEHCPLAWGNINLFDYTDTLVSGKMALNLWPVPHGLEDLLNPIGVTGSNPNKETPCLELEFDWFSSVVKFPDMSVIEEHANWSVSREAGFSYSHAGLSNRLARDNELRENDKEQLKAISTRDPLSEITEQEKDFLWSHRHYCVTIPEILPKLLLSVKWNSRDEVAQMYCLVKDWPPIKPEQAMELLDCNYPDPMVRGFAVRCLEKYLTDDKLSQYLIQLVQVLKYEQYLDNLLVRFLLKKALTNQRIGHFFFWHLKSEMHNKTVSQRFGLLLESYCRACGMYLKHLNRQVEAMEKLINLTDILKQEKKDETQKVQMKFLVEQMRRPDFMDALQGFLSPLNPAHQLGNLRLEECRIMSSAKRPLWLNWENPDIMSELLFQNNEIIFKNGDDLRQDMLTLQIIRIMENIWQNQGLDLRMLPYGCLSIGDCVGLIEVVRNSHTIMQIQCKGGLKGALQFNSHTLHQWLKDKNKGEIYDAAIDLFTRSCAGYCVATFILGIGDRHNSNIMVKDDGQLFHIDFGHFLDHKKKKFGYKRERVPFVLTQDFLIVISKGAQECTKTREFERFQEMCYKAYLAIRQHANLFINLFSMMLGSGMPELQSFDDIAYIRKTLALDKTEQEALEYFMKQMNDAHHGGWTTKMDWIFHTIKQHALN
Outline: as §1

[4] = test system: Akt phosphorylated at Thr308 in PC-3 cells; experiment: Cellular assay: phosphorylation of Akt at Thr308 in PC-3 cells (MSD ELISA); assay type: cell-based; settings: PC-3 cells, 60 min compound incubation, MSD ELISA, read-out: IC50 pAkt_Thr308
Outline: (§2)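 PC-3 cells were exposed to compound or 0.3% DMSO for 60 min at 37° C, 5% CO2, then lysed in ice-cold buffer. Phospho-Akt was captured on site-specific antibody-coated plates and detected with Sulfo-tag anti-total Akt by electrochemiluminescence. IC50 values came from five-concentration response curves.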

PI3Kδ = biological target: T4, PI3Kδ (Homo sapiens, UniProt O00329); experiment: Enzyme binding assay (KINOMEscan, DiscoveRx); settings: PIK3Cδ_h
T4 construct: purchased DiscoveRx Corporation, San Diego (contract service, KINOMEscan)
T4 sequence (O00329 1-1044): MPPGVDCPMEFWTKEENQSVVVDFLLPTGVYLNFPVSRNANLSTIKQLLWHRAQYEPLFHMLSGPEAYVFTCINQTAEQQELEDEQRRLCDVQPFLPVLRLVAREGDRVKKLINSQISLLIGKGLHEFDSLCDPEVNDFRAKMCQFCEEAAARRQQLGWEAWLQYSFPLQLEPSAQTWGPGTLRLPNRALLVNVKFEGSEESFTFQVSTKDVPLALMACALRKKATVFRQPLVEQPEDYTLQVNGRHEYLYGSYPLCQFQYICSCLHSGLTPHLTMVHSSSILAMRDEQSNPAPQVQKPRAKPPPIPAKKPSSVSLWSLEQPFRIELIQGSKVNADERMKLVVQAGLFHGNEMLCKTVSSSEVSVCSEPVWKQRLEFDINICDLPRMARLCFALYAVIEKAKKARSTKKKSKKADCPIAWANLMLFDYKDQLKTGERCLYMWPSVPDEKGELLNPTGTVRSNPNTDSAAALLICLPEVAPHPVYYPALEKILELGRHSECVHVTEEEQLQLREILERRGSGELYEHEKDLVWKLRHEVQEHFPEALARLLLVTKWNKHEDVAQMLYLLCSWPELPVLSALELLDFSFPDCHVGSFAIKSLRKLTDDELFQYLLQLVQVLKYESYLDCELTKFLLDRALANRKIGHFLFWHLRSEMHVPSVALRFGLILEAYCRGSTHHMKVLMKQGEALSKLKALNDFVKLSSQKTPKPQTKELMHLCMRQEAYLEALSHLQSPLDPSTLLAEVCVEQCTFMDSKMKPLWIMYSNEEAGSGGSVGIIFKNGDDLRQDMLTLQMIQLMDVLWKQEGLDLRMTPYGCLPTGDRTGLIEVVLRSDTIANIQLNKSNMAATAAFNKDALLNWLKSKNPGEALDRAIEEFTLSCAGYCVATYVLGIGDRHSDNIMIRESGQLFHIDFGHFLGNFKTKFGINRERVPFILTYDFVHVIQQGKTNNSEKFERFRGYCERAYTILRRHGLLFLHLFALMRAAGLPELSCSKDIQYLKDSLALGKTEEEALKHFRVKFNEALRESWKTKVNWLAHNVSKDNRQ
Outline: as §1

PI3Kβ = biological target: T5, PI3Kβ (Homo sapiens, UniProt P42338); experiment: Enzyme binding assay (KINOMEscan, DiscoveRx); settings: PIK3Cβ_h, read-out: Kd PIK3Cβ_h
T5 construct: purchased DiscoveRx Corporation, San Diego (contract service, KINOMEscan)
T5 sequence (P42338 whole entry): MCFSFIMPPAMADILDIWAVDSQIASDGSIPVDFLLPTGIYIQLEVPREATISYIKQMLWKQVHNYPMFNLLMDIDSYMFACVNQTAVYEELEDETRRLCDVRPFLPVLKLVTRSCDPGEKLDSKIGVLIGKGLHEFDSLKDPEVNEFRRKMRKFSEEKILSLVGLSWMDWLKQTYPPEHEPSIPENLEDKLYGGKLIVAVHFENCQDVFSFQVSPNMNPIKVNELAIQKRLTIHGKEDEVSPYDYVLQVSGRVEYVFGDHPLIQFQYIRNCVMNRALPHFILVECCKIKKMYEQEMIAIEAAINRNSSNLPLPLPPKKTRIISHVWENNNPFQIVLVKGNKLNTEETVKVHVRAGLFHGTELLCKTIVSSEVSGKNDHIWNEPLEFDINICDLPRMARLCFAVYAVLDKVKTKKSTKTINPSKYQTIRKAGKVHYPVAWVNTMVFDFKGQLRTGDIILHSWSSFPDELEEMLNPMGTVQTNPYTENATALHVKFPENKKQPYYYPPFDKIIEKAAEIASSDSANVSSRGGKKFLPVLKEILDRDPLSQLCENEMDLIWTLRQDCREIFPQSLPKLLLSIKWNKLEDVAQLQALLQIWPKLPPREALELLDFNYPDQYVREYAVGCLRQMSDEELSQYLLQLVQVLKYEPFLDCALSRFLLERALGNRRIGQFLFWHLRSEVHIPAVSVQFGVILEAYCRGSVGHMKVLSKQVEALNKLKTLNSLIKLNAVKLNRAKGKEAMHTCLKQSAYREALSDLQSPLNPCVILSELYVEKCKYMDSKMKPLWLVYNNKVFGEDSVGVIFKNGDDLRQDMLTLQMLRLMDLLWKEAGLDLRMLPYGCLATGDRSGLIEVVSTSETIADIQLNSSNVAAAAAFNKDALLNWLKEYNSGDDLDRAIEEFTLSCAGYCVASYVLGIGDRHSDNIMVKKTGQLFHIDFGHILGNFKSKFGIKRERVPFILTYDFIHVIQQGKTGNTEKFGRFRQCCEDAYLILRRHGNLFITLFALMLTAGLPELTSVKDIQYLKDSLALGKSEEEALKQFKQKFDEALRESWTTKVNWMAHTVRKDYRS
Outline: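 Compounds are profiled for binding to the kinase using KINOMEscan. The affinity is then reported as an inhibitor Kd in nanomolar units.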

[5] = test system: Akt phosphorylated at Ser473 in PC-3 cells; experiment: Cellular assay: phosphorylation of Akt at Ser473 in PC-3 cells (MSD ELISA); assay type: cell-based; settings: PC-3 cells, 60 min compound incubation, MSD ELISA, read-out: IC50 pAkt_S473
Outline: as §2

| SMILES | Kd (kinase enzymes [1]) [nM] | Kd (kinase enzymes [2]) [nM] | Kd (kinase enzymes [3]) [nM] | IC50 ([4]; Homo sapiens, PC-3, 1 h) [nM] | Kd (PI3Kδ) [nM] | Kd (PI3Kβ) [nM] | IC50 ([5]; Homo sapiens, PC-3, 1 h) [nM] | melting point [°C] | IC50 [4] [nM] | IC50 [5] [nM] |
| --- | --- | --- | --- | --- | --- | --- | --- | --- | --- | --- |
| Cc1cccc(N(C)C(C)c2cc(C(=O)N(C)C)cc3ncc(N4CCOCC4)nc23)c1 (single isomer, unassigned) [Compound 127] | 21900 | 25700 | 6460 | 331 | 2290 | 32 | ~457 | 80 | – | – |
| CN[C@@H]1CCN(C(=O)c2cc(C(C)Nc3ccc(F)c(F)c3)c3nc(N4CCOCC4)cnc3c2)C1 (single isomer, unassigned) [Compound 371a] | 1050 | > 30200 | 1510 | – | 83 | 0.3 | – | 114 | 2 | 10 |
| CC(Nc1cc(F)c(C(F)(F)F)c(F)c1)c1cc(C(=O)NCCO)cc2ncc(N3CCOCC3)nc12 (centres unmarked) [Compound 223] | 13800 | > 30200 | > 30200 | > 513 | > 30200 | 4790 | > 513 | 200 | – | – |
| Cc1c(CNc2cc(C(=O)N(C)C)cc3ncc(N4CCOCC4)nc23)cccc1C(F)(F)F [Compound 399] | 9330 | > 30200 | 2820 | > 513 | 5250 | 45 | > 513 | 202 | – | – |
| CC(C)N1CCN(C(=O)c2cc(C3CCCN3c3cc(F)cc(F)c3)c3nc(N4CCOCC4)cnc3c2)CC1 (centres unmarked) [Compound 69] | 3090 | > 30200 | 891 | ~32 | 195 | 3 | 117 | 80 | – | – |
| CC(Nc1cccc(F)c1)c1cc(C(=O)NCC(=O)O)cc2ncc(N3CCOCC3)nc12 (single isomer, unassigned) [Compound 393b] | 6610 | 15800 | 11000 | – | 25700 | 2290 | – | 196 | > 513 | > 513 |
| CC(Nc1ccc(F)c(F)c1)c1cc(C(=O)NC[C@H]2CCCN2)cc2ncc(N3CCOCC3)nc12 (some centres unmarked) [Compound 376] | 5130 | > 30200 | 4270 | 85 | 295 | 1 | 105 | 130 | – | – |
| CC(Nc1ccc(F)c(F)c1)c1cc(C(=O)NC[C@@H](C)O)cc2ncc(N3CCOCC3)nc12 (single isomer, unassigned) [Compound 346a] | 9550 | 30900 | 2510 | – | 955 | 3 | – | 107 | 68 | 178 |
| Cc1cccc(NC(C)c2cc(C(=O)N3CCOCC3)cc3ncc(N4CCOCC4)nc23)c1 (centres unmarked) [Compound 120] | > 30200 | > 30200 | 6760 | 269 | 2190 | 14 | 479 | 80 | – | – |
| CC(Nc1cc(F)cc(F)c1)c1cc(C(=O)O)cc2ncc(N3CCOCC3)nc12 (single isomer, unassigned) [Compound 83b] | 562 | 1290 | 170 | > 513 | 129 | 1 | > 513 | 180 | – | – |
| CC(Nc1cc(F)c(F)c(F)c1)c1cc(C(=O)NCCO)cc2ncc(N3CCOCC3)nc12 (single isomer, unassigned) [Compound 213] | 3240 | 7760 | 2090 | – | 269 | 2 | – | 80 | 25 | 33 |
| CC(Oc1cc(F)cc(F)c1)c1cc(C(=O)N(C)C)cc2ncc(C3=CCOCC3)nc12 (single isomer, unassigned) [Compound 403b] | > 30200 | > 30200 | > 30200 | – | 17400 | 3160 | – | 54 | > 513 | > 513 |
| CC(Nc1cc(F)c(F)c(F)c1)c1cc(C(=O)O)cc2ncc(N3CCOCC3)nc12 (centres unmarked) [Compound 170] | 2240 | 4370 | 617 | > 513 | 288 | 5 | > 513 | 285 | – | – |
| CC(Sc1ccccc1)c1cc(C(=O)N(C)C)cc2ncc(N3CCOCC3)nc12 (centres unmarked) [Compound 135] | 17400 | 11200 | 10000 | > 513 | 3800 | 195 | > 513 | 144 | – | – |
| CC(c1cc(C(=O)N2CCOCC2)cc2ncc(N3CCOCC3)nc12)N(CCO)c1cc(F)cc(F)c1 (centres unmarked) [Compound 129] | 8910 | 9770 | 1780 | 105 | 1070 | 3 | 112 | 80 | – | – |
| CC(Nc1cc(F)cc(F)c1)c1cc(C(=O)NC2CN(CC(F)(F)F)C2)cc2ncc(N3CCOCC3)nc12 (centres unmarked) [Compound 238] | 12300 | > 30200 | 5010 | 157 | 2210 | 8 | 219 | 110 | – | – |
